# Values quoted from earlier work, collected in PMC11035696, “Prospective de novo drug design with deep interactome learning” (Nature Communications, 2024).
# Test system: PPARγ
# Conditions: known PPARγ activity of ChEMBL ligands; ref ChEMBL database; cited from earlier work
smiles,measurement,value
Cc1sc(-c2ccccc2F)nc1CCOc1ccc2c(c1)CC[C@H]2CC(=O)O [ChEMBL391987],pEC50,6.94
